In ChEMBL document CHEMBL1201862, “PubChem BioAssay data set” (2004):
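These data come from cells grown in 96-well plates and exposed to compound for 48 hours at five concentrations. Abbreviation: GI50, concentration required for 50% inhibition of growth.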 The source made the active and inactive calls. No stated cut-off is given here; in the data, active = GI50 up to about 1.1 µM and inactive = higher.

Assays:
Assay in all cases: NCI tumour cell line growth inhibition, 48 h
[1] = tested on: ACHN
[2] = tested on: A549
[3] = tested on: HT-29
[4] = tested on: M14
[5] = tested on: HL-60
[6] = tested on: SF-539
[7] = tested on: LXFL 529
[8] = tested on: RXF 393
[9] = tested on: HCT-116
[10] = tested on: SK-OV-3
[11] = tested on: DMS-273
[12] = tested on: HCT-15
[13] = tested on: Malme-3M
[14] = tested on: SNB-75
[15] = tested on: OVCAR-8
[16] = tested on: NCI/ADR-RES
[17] = tested on: BT-549
[18] = tested on: MDA-N
[19] = tested on: MDA-MB-231
[20] = tested on: DU-145

| Structure (SMILES) | GI50 [1] | GI50 [2] | GI50 [3] | GI50 [4] | GI50 [5] | GI50 [6] | GI50 [7] | GI50 [8] | GI50 [9] | GI50 [10] | GI50 [11] | GI50 [12] [µM] | GI50 [13] | GI50 [14] | GI50 [15] | GI50 [16] | GI50 [17] | GI50 [18] | GI50 [19] | GI50 [20] |
| --- | --- | --- | --- | --- | --- | --- | --- | --- | --- | --- | --- | --- | --- | --- | --- | --- | --- | --- | --- | --- |
| COC(=O)CC1CC2(C(=O)OC)c3[nH]c4ccccc4c3CCN2C1=O (configuration not stated) | > 100 µM (inactive) | > 100 µM (inactive) | > 100 µM (inactive) | > 100 µM (inactive) | > 100 µM (inactive) | > 100 µM (inactive) | > 100 µM (inactive) | > 100 µM (inactive) | > 100 µM (inactive) | > 100 µM (inactive) | > 100 µM (inactive) | > 100 | > 100 µM (inactive) | > 100 µM (inactive) | > 100 µM (inactive) | – | – | – | – | – |
| O=C1OC(=O)c2c1nc1ccccc1c2-c1ccccc1 | > 100 µM (inactive) | > 100 µM (inactive) | > 100 µM (inactive) | > 100 µM (inactive) | > 100 µM (inactive) | > 100 µM (inactive) | > 100 µM (inactive) | > 100 µM (inactive) | > 100 µM (inactive) | > 100 µM (inactive) | > 100 µM (inactive) | > 100 | > 100 µM (inactive) | > 100 µM (inactive) | > 100 µM (inactive) | – | – | – | – | – |
| CC(=O)Nc1ccc(C2=N/C(=C\c3ccc(Cl)cc3)C(=O)O2)cc1 | 27.4 µM (inactive) | > 100 µM (inactive) | 60.7 µM (inactive) | 25.5 µM (inactive) | 30.3 µM (inactive) | > 100 µM (inactive) | 24.4 µM (inactive) | 53.5 µM (inactive) | 36 µM (inactive) | 30.7 µM (inactive) | 66.5 µM (inactive) | 19.9 | 87.7 µM (inactive) | 40.4 µM (inactive) | 32.1 µM (inactive) | – | – | – | – | – |
| CCOC(=O)c1cc(C(=O)O)c(=O)n2c1[nH]c1ccccc12 | > 100 µM (inactive) | 60.8 µM (inactive) | > 100 µM (inactive) | > 100 µM (inactive) | > 100 µM (inactive) | 36.4 µM (inactive) | 75.7 µM (inactive) | 24.3 µM (inactive) | 40.7 µM (inactive) | 78.7 µM (inactive) | 56.1 µM (inactive) | 46.7 | > 100 µM (inactive) | 31.8 µM (inactive) | > 100 µM (inactive) | – | – | – | – | – |
| C/C(=N\NC(=S)N1CCN(c2ccccn2)CC1)c1nccs1 | 0.355 µM (active) | 0.908 µM (active) | 0.335 µM (active) | 0.16 µM (active) | 0.01 µM (active) | 0.524 µM (active) | 0.01 µM (active) | 3.72 µM (inactive) | < 0.0441 µM (active) | 1.61 µM (inactive) | 0.351 µM (active) | 0.071 | 3.82 µM (inactive) | 2.82 µM (inactive) | 0.258 µM (active) | 0.0339 µM (active) | 2.02 µM (inactive) | 0.431 µM (active) | 0.022 µM (active) | 0.29 µM (active) |
| CS(=O)(=O)OC1CCC2(C#N)CCC1C2=O (configuration not stated) | > 100 µM (inactive) | > 100 µM (inactive) | > 100 µM (inactive) | 71.3 µM (inactive) | > 100 µM (inactive) | > 100 µM (inactive) | > 100 µM (inactive) | > 100 µM (inactive) | > 100 µM (inactive) | > 100 µM (inactive) | 22.5 µM (inactive) | 12.1 | > 100 µM (inactive) | > 100 µM (inactive) | > 100 µM (inactive) | – | – | – | – | – |
| Cc1cccc(NC(=O)C(=O)C(C2OC(=O)c3ccccc32)[N+](=O)[O-])c1C (configuration not stated) | 10.9 µM (inactive) | 18.3 µM (inactive) | 16.7 µM (inactive) | 13.8 µM (inactive) | 2.37 µM (inactive) | 18.9 µM (inactive) | 8.04 µM (inactive) | 6.87 µM (inactive) | 5.96 µM (inactive) | 13.6 µM (inactive) | 2.59 µM (inactive) | 5.21 | 3.79 µM (inactive) | 5.51 µM (inactive) | 13.2 µM (inactive) | – | – | – | – | – |
| COC(=O)CC1NC(=O)C1C1(C)OCCO1 (configuration not stated) | > 100 µM (inactive) | > 100 µM (inactive) | > 100 µM (inactive) | > 100 µM (inactive) | > 100 µM (inactive) | > 100 µM (inactive) | > 100 µM (inactive) | > 100 µM (inactive) | > 100 µM (inactive) | – | > 100 µM (inactive) | > 100 | > 100 µM (inactive) | 28 µM (inactive) | > 100 µM (inactive) | – | – | – | – | – |
| CC(=O)Nc1ccc(/C=c2\sc3nnc(/C=C/c4ccccc4)n3c2=O)cc1 | > 50 µM (inactive) | > 50 µM (inactive) | – | > 50 µM (inactive) | > 50 µM (inactive) | > 50 µM (inactive) | > 50 µM (inactive) | > 50 µM (inactive) | > 50 µM (inactive) | > 50 µM (inactive) | > 50 µM (inactive) | – | > 50 µM (inactive) | > 50 µM (inactive) | > 50 µM (inactive) | – | – | – | – | – |
